# Laboratory results from article PMC7226839, “Modulation of STAT3 Signaling, Cell Redox Defenses and Cell Cycle Checkpoints by β-Caryophyllene in Cholangiocarcinoma Cells: Possible Mechanisms Accounting for Doxorubicin Chemosensitization and Chemoprevention” (Cells, 2020).
# Structures can show the parent of a compound that is named as a salt. Where two headings read alike, the source gives them in different places.
# Experiments:
# [1] = test system: γH2AX in Mz-ChA-1 cholangiocarcinoma cells; test: Western blotting of phosphorylated H2AX (Ser139); assay type: cell-based, human; settings: for increase in γH2AX levels compared the control: doxorubicin 20 µM
# Experimental: (§4) To perform the analysis, the cells were seeded in 6-well plates, then subjected to the treatment with β-caryophyllene (50 µM) and doxorubicin (20 µM), alone and in combination, for the required time exposure, then harvested by centrifugation and washed in PBS. A lysis buffer, containing SDS (2% w/w), Tris-hydrochloride (20 mM; pH 7.4), urea (2 M), glycerol (10% w/w), sodium orthovanadate (2 mM), DTT (10 mM) and a protease inhibitors cocktail (1:100 dilution) was used to achieve the cell protein separation. The separated proteins were resolved by SDS-PAGE 10% TGX FastCast™ Acrylamide gel (BioRad, Segrate, Italy) and transferred on PVDF membranes (BioRad, Segrate, Italy) by using a Trans-Blot® Turbo™ Transfer System (BioRad, Segrate, Italy). The membranes were blocked with a 0.2% w/v I-block (Thermo Fisher Scientific, Rodano, Italy) in Tris-buffered saline containing 0.05% Tween-20 (TBS-T), then stained with the desired primary antibodies. […] After rinsing three times in TBS-T to remove unbound primary antibody, the membranes were incubated for an additional hour with the appropriate horseradish peroxidase- or alkaline phosphatase-conjugated secondary antibody (Jackson ImmunoResearch, Pero, Italy). […] Each experiment was performed at least in three replicates.
# [2] = test system: Mz-ChA-1 cholangiocarcinoma cells; test: Annexin-V-Cy3/CFDA flow cytometry (apoptotic and viable cells); assay type: cell-based, human; settings: for inhibition of viable cells (CF fluorescence): Mz-ChA-1, 2 h and 24 h, maximum
# Experimental: (§1) Apoptosis extent was evaluated by Annexin-V staining (Annexin V Apoptosis detection kit, Santa Cruz Biotechnology, DBA, Milan, Italy), which is known to specifically binds phosphatidylserine, a […] which is normally embedded in the inner leaflet of plasma membrane and externalized during apoptosis, as a result of the membrane changes. Therefore, apoptotic cells can be directly detected through their staining with the fluorochrome-conjugated Annexin V. The analysis was performed by both fluorescence microscopy and flow cytometry in order to both visualize the event and to achieve a quick and accurate quantification of apoptotic cells.
# For flow cytometry analysis, the cells (1 × 10^6 cells) were grown in 6-well plates, treated with β-caryophyllene (50 µM) and doxorubicin (20 µM), alone and in combination for the required time exposure, then collected by trypsinization and resuspended in PBS in the presence of the fluorochrome Annexin-V-Cy3 (4 μg/mL in cell suspension). In order to detect viable cells, the nonfluorescent probe carboxyfluorescein diacetate (CFDA; 2 μg/mL in cell suspension), hydrolyzed in living cells by esterases to its fluorescent carboxyfluorescein metabolite (CF), was included too. For each sample, the mean fluorescence of Annexin-V-Cy3 (excitation/emission at 543/570 nm, respectively) and CF (excitation/emission at 492/514 nm, respectively) in 50,000 cells was measured using a BD Accuri^TM C6 flow cytometer, FL-2 and FL-1 channels respectively (BD Biosciences, Milan, Italy). Although standard flow cytometry apoptosis assays use Annexin V-FITC, we chosen the conjugate with Cy3 in order to avoid the overlapping in the excitation wavelength of annexin V-FITC and CF, which could interfere with the analysis. Cells undergoing apoptosis were also sorted by their typical forward- and side scatter (FSC-SSC) pattern, i.e., increased SSC and decreased FSC, respect to the viable cells. Multiparameter analysis and gating of forward and side scatter as well as fluorescence detection were performed using a BD Accuri^TM C6 Software version 1.0.264.21 (BD Biosciences, Milan, Italy).
# [3] = test system: Mz-ChA-1 cholangiocarcinoma cells; test: cells; settings: Homo sapiens, combination with 50 µM β-caryophyllene
# Experimental: (§5) To perform the assay, the cells were grown for 24 h into 96-well microplates (2 × 10^4 cells/well), then treated with the test substances and incubated according to the applied protocol schedule [26]. At the end of incubation, the cytotoxicity was measured by the 3-[4,5-dimethylthiazol-2-yl] -2,5-diphenyl tetrazolium bromide (MTT) assay, using an Epoch Microplate Spectrophotometer (BioTek, AHSI, Milan Italy). At least three biologic replicates, in which each concentration was tested in triplicate, were made. Comparing the number of viable cells in each treatment respect to the vehicle control allows to measure a cell viability reduction. The effect of the treatment was considered as cytotoxic when at least a 30% lowering of cell viability occurred [59].
# (§6) In the single long-term schedule, confluence cells were exposed to the test substances for 24 h and 72 h (Figure S1), then the cytotoxicity was measured by the MTT assay. Under the metronomic treatment, the cells were subjected to a short and/or repeated exposure of 2 h to the test substances (Figure S2), as follow: 1) single treatment, the cells were treated for 2 h, then washed and incubated for 72 h; 2) two-repeated treatments, the cells were exposed to the test substances for 2 h, then washed and incubated for functional recovery for further 2 h. After recovering, the cells were further treated with the test substances for 2 h, washed and incubated for 72 h. Finally, the cytotoxicity was measured by the MTT assay as described above.
# The type of interaction between β-caryophyllene and doxorubicin, i.e., synergy, additivity or antagonism, was evaluated by measuring three parameters: reversal ratio value (RR), combination index (CI) and isobolographic analysis (IB) [24].
# (§7) RR represents the cytotoxicity enhancement ratio and allows to quantify the efficacy increase of a drug (A) in the presence of a chemosensitizing agent (B), by relating the IC50 of A alone (CA) and that of IC50 of its combination with B (CA+B).
# CI gives a quantitative measure of the interaction and is calculated as follow: (CA,X/ICX,A) + (CB, X/ICX,B), in which CA,X and CB,X are the concentrations of A and B at the IC50 value of their combination, whereas ICX,A and ICX,B are the IC50 values of the substances alone. When the CI value was equal to, less or higher than 1, the interaction between test substances was evaluated as additivity, synergism and antagonism, respectively.
# The isobolographic analysis, displaying the extent of the interaction between drug A and the potential chemosensitizer B, was obtained by a two-coordinate plot, wherein the IC50 concentrations of A and B were plotted on the x and y axes, corresponding to (CA, 0) and (C0, B), respectively. The substance concentrations used in the combination (CA+B) were placed in the same plot. A nonlinear regression analysis was carried out by GraphPad Prism™ 6.00 software, in order to connect the IC50 value of each drug alone and that of the combination, whereas the line connecting CA and CB represented an additive interaction. A synergism between A and B occurred when CA+B were located below the line, while the interaction was antagonistic when the values were above the line [60].
# [4] = test system: Mz-ChA-1 cholangiocarcinoma cells; test: Cell cycle analysis (PI flow cytometry); assay type: cell-based, human; settings: Mz-ChA-1, 24 h
# Experimental: (§2) Analysis of cell cycle progression was performed by applying a one parameter flow cytometric method, in which cell cycle distribution was evaluated on the basis of DNA content. Briefly, after treatments, the harvested cells (about 1 × 10^6 cells) were fixed in ice cold 70% ethanol and stored for at least 2 h at 4 °C. Thereafter, the ethanol-suspended cells were separated by centrifugation, rinsed in PBS, then resuspended in a propidium iodide (PI) staining solution, containing 0.1% v/v Triton X-100, 10 μg/mL PI and 100 μg/mL DNase-free RNase A in PBS and stored at 4 °C in the dark for at least 30 min. For each sample, the mean fluorescence of PI (maximum excitation of PI bound to DNA at 536 nm; emission at 617 nm) in 50,000 cells was measured using a BD Accuri^TM C6 flow cytometer FL2 channel (BD Biosciences, Milan, Italy) and deconvolution of the DNA content frequency histograms, to estimate the proportions of cells in the respective phases of the cycle, was made by Modfit 4.1 software (Verity Software House, Topsham, ME, USA).
# [5] = test system: H69 noncancerous cholangiocytes; test: Annexin-V-FITC fluorescence microscopy, semiquantitative; assay type: cell-based; settings: H69, 24 h, β-caryophyllene 50 µM, doxorubicin 20 µM
# Experimental: as §1
# [6] = test system: phospho(Tyr705)-STAT3 in Mz-ChA-1 cells; test: Western blotting of phospho(Tyr705)-STAT3; assay type: cell-based, human; settings: for increase of phospho(Tyr705)-STAT3 compared the control: β-caryophyllene 50 µM, doxorubicin 20 µM
# Experimental: as §4
# [7] = test system: H69 noncancerous cholangiocytes; test: MTT cytotoxicity and combination assay; assay type: cell-based; settings: for IC50: combination with 50 µM β-caryophyllene; for cytotoxicity: H69, 100 μM
# Experimental: as §5, §6, §7
# [8] = test system: glutathione in H69 noncancerous cholangiocytes; test: HPLC determination of intracellular GSH and GSSG; assay type: cell-based; settings: H69, 24 h
# Experimental: (§3) Intracellular levels of reduced (GSH) and oxidized (GSSG) glutathione were measured by HPLC-UV, as previously described. Briefly, after treatments with β-caryophyllene (50 µM) and doxorubicin (20 µM), the harvested cells (1 × 10^6 cells) were suspended in 10% ice-cold TCA and centrifuged for 15 min at 9000× g, then supernatant was collected and GSH and GSSG measured by HPLC with UV detection at 215 nm. The separation was achieved using a InfinityLab poroshell 120 EC-C18 column (3 × 150 mm, 2.7 μm) at a flow rate of 0.8 mL/min, using the following elution gradient: 0–3 min 100% A + 0% B, 3–10 min from 100% A to 100% B. The mobile phase A contained 0.1% trifluoroacetic acid in water, whereas mobile phase B was 0.1% trifluoroacetic acid in water/acetonitrile (93:7). Under our chromatographic conditions, retention times of GSH and GSSG were 2.58 min and 7.01 min, respectively.
# [9] = test system: glutathione in Mz-ChA-1 cholangiocarcinoma cells; test: HPLC determination of intracellular GSH and GSSG; assay type: cell-based, human
# Experimental: as §3
# [10] = test system: H69 noncancerous cholangiocytes; test: Cell cycle analysis (PI flow cytometry); assay type: cell-based; settings: H69, 24 h
# Experimental: as §2
# [11] = test system: γH2AX in H69 noncancerous cholangiocytes; test: Western blotting of phosphorylated H2AX (Ser139); assay type: cell-based; settings: for increase of γH2AX with respect to control: doxorubicin 20 µM
# Experimental: as §4
# [12] = test system: Mz-ChA-1 cholangiocarcinoma cells; test: Annexin-V-FITC fluorescence microscopy, semiquantitative; assay type: cell-based, human; settings: Mz-ChA-1, 24 h, β-caryophyllene 50 µM, doxorubicin 20 µM
# Experimental: as §1
# [13] = 24 h, read-out: IC50 (CL), Mz-ChA-1, 24 h exposure
# [14] = 72 h, read-out: IC50 (CL), Mz-ChA-1, 72 h exposure
# [15] = read-out: IC50 (CL), Mz-ChA-1, double repeated 2 h exposure + 72 h recovery
# [16] = read-out: IC50 (CL), Mz-ChA-1, single 2 h exposure + 72 h recovery
# [17] = β-caryophyllene 50 µM, doxorubicin 20 µM
# [18] = H69, double repeated 2 h exposure + 72 h recovery
# [19] = H69, single 2 h exposure + 72 h recovery
compound,measurement,setting,value
"C=C1CC/C=C(\C)CC[C@@H]2[C@@H]1CC2(C)C [β-Caryophyllene, β-caryophyllene]",effect on γH2AX levels,"[1]; Mz-ChA-1, 50 µM, 2 h and 24 h",null effects
same,inhibition of viable cells (CF fluorescence),[2],about 1.2 fold
same,effect on basal apoptosis (annexin-V-Cy3),"[2]; Mz-ChA-1, β-caryophyllene 50 µM",did not affected the basal apoptosis
same,IC50,[3]; [13],124 µM
same,IC50,[3]; [14],90 µM
same,IC50,[3]; [15],140 µM
same,IC50,[3]; [16],172 µM
same,increase in G0/G1 phase vs. control,[4]; β-caryophyllene 50 µM,about 1.2 fold
same,increase in G2/M phase vs. control,[4]; [17],about 1.5 fold
same,Annexin V H69 (semiquantitative apoptosis score),[5],– (0%–5% = negative)
same,increase of phospho(Tyr705)-STAT3 compared the control,"[6]; Mz-ChA-1, 2 h",≥ 3 fold
same,increase of phospho(Tyr705)-STAT3 compared the control,"[6]; Mz-ChA-1, 24 h",≥ 3 fold
same,IC50,"[7]; 24 h, H69, 24 h exposure",148 µM
same,IC50,"[7]; 72 h, H69, 72 h exposure",146 µM
same,"maximum cytotoxicity increase, long-term compared metronomic treatments (IC50)",[7]; H69,about 1.2 fold
same,reduction of cell viability,"[7]; H69, 50 μM",lower than 20%
same,inhibition of cell viability vs. control,"[7]; H69, 125 μM, 24 h and 72 h",about 40%
same,effect on cell proliferation,"[7]; H69, 125 μM, metronomic schedules",without affecting cell proliferation
same,IC50,[7]; [18],161 µM
same,IC50,[7]; [19],177 µM
same,change in the amount of GSSG,[8],slightly increased
same,basal GSH/GSSG ratio,[8]; β-caryophyllene 50 µM,retained
same,enhancement of GSH,[8]; β-caryophyllene 50 µM,~1.5 fold
same,change in GSSG,"[9]; Mz-ChA-1, 24 h",without changes in GSSG
same,increase of GSH levels vs. control,"[9]; Mz-ChA-1, 24 h, β-caryophyllene 50 µM",about 2.5 fold
same,increase of GSH/GSSG ratio,"[9]; Mz-ChA-1, β-caryophyllene alone",about 2 fold
same,reduction of G2/M phase vs. control,[10]; β-caryophyllene 50 µM,about 1.4 fold
same,effect on γH2AX levels,"[11]; H69, 50 µM, 2 h and 24 h",null effects
same,Annexin V Mz-ChA-1 (semiquantitative apoptosis score),[12],+/- (6%–10% = +/−)
"COc1cccc2c1C(=O)c1c(O)c3c(c(O)c1C2=O)C[C@@](O)(C(=O)CO)C[C@@H]3O[C@H]1C[C@H](N)[C@H](O)[C@H](C)O1 [Doxorubicin, doxorubicin hydrochloride]",increase in γH2AX levels compared the control,"[1]; Mz-ChA-1, 2 h",about 60 fold
same,increase in γH2AX levels compared the control,"[1]; Mz-ChA-1, 24 h",~140 fold
same,inhibition of viable cells (CF fluorescence),[2],up to 1.5 fold
same,increase of apoptotic rate vs the basal rate in the control,"[2]; Mz-ChA-1, 24 h",~3 fold
same,IC50,[3]; [13],27.8 µM
same,IC50,[3]; [14],3.8 µM
same,IC50,[3]; [15],11.6 µM
same,IC50,[3]; [16],19.8 µM
same,increase of cell accumulation in S-phase compared the control,[4]; doxorubicin 20 µM,~1.6 fold
same,reduction of G0/G1 phase,[4]; doxorubicin 20 µM,at least 4 fold
same,increase in G2/M phase vs. control,[4]; [17],about 1.4 fold
same,Annexin V H69 (semiquantitative apoptosis score),[5],+ (11%–30% = +)
same,increase of phospho(Tyr705)-STAT3 compared the control,"[6]; Mz-ChA-1, 2 h",~100 fold
same,increase of phospho(Tyr705)-STAT3 compared the control,"[6]; Mz-ChA-1, 24 h",~20 fold
same,higher phospho(Tyr705)-STAT3 expression in Mz-ChA-1 with respect H69 cholangiocytes,"[6]; doxorubicin-promoted, Mz-ChA-1 vs H69",~10 fold
same,IC50,"[7]; 24 h, H69, 24 h exposure",13.6 µM
same,IC50,"[7]; 72 h, H69, 72 h exposure",4 µM
same,"IC50 reduction, double short exposure compared the single one",[7]; H69,1.5 fold
same,"cytotoxicity lowering, double repeated metronomic vs 24 h exposure (IC50)",[7]; H69,~3 fold
same,"cytotoxicity lowering, single metronomic vs 24 h exposure (IC50)",[7]; H69,~7 fold
same,fold more toxic after 72 h with respect to 24 h (IC50 comparison),[7]; H69,about 3 fold
same,inhibition of cell viability,"[7]; H69, 10 µM, 24 h",about 40%
same,fold more toxic than the 24 h protocol,"[7]; H69, 10 µM, 72 h",2 fold
same,maximal cytotoxicity,"[7]; H69, 10 µM, 72 h",about 80%
same,cytotoxicity,[7]; double repeated 2 h exposure,~70%
same,cytotoxicity,[7]; single 2 h exposure,about 60%
same,maximum inhibition of cell viability,"[7]; H69, 200 µM, 24 h",about 80%
same,IC50,[7]; [18],54.4 µM
same,fold safer than the long-term exposures of 72 h,"[7]; H69, metronomic schedules",about 100 fold
same,nontoxic up to (concentration),"[7]; H69, metronomic schedules",up to 20 μM
same,IC50,[7]; [19],81.8 µM
same,change in the amount of GSSG,[8],slightly but not significantly reduced
same,depletion of GSH,[8],~2 fold
same,lowering of basal GSH/GSSG ratio,[8],~1.6 fold
same,lowering of GSH/GSSG ratio,"[9]; Mz-ChA-1, 2 h",1.3 fold
same,change in GSH,"[9]; Mz-ChA-1, 2 h, doxorubicin 20 µM",not significantly decreased
same,change in GSSG,"[9]; Mz-ChA-1, 24 h",without changes in the GSSG amount
same,lowering of GSH/GSSG ratio,"[9]; Mz-ChA-1, 24 h",4 fold
same,reduction of GSH,"[9]; Mz-ChA-1, 24 h, doxorubicin 20 µM",at least 3 fold
same,increase of cell accumulation in S-phase compared the control,[10]; doxorubicin 20 µM,~1.8 fold
same,reduction of G0/G1 phase,[10]; doxorubicin 20 µM,≥ 30 fold
same,increase of γH2AX with respect to control,"[11]; H69, 2 h",~40 fold
same,increase of γH2AX with respect to control,"[11]; H69, 24 h",~200 fold
same,Annexin V Mz-ChA-1 (semiquantitative apoptosis score),[12],+ (11%–30% = +)
